Measurements as given in PubChem BioAssay (NCI).
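Exposure lasted 48 hours, with cells grown in 96-well plates and compounds tested at five concentrations. GI50: concentration for 50% inhibition of growth. TGI: concentration producing complete growth inhibition.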

Assays:
Experiment in all cases: growth of human tumour cells (NCI), 48 h
MDA-MB-435 = tested on: MDA-MB-435
MALME-3M melanoma = tested on: MALME-3M melanoma
SNB-75 CNS = tested on: SNB-75 CNS
BT-549 breast = tested on: BT-549 breast
SW-620 colon = tested on: SW-620 colon
HOP-92 NSCLC = tested on: HOP-92 NSCLC
SNB-19 CNS = tested on: SNB-19 CNS
LOX IMVI melanoma = tested on: LOX IMVI melanoma
MDA-MB-231 breast = tested on: MDA-MB-231 breast
OVCAR-3 ovarian = tested on: OVCAR-3 ovarian

SMILES | TGI (MDA-MB-435) [µM] | TGI (MALME-3M melanoma) [µM] | TGI (SNB-75 CNS) [µM] | TGI (BT-549 breast) [µM] | TGI (SW-620 colon) [µM] | TGI (HOP-92 NSCLC) [µM] | TGI (SNB-19 CNS) [µM] | TGI (LOX IMVI melanoma) [µM] | TGI (MDA-MB-231 breast) [µM] | TGI (OVCAR-3 ovarian) [µM] | GI50 (MDA-MB-435) [µM] | GI50 (MALME-3M melanoma) [µM] | GI50 (SNB-75 CNS) [µM] | GI50 (BT-549 breast) [µM] | GI50 (SW-620 colon) [µM] | GI50 (HOP-92 NSCLC) [µM] | GI50 (SNB-19 CNS) [µM] | GI50 (LOX IMVI melanoma) [µM] | GI50 (MDA-MB-231 breast) [µM] | GI50 (OVCAR-3 ovarian) [µM]
C=CCN(C(C)=O)c1cc(OCc2ccccc2)c2c(c1)c(C)cn2S(=O)(=O)c1ccccc1 | > 46.3 | 34.2 | > 100 | > 100 | > 100 | > 100 | > 100 | 50.1 | > 70.8 | > 27.7 |  |  |  |  |  |  |  |  |  | 
Cc1ccc([N+](=O)[O-])cc1S(=O)(=O)Nc1ccc(C2=NN(S(=O)(=O)c3cc([N+](=O)[O-])ccc3C)C(c3ccccc3O)C2)cc1 (stereo unspecified) | > 100 | > 100 | > 100 | > 100 | > 100 | > 100 | > 100 | > 100 | > 100 | > 100 |  |  |  |  |  |  |  |  |  | 
CC(C)C1OC(=O)C(Cc2ccccc2)N(C)C(=O)C(C(C)C)OC(=O)C(Cc2ccccc2)N(C)C(=O)C(C(C)C)OC(=O)C(Cc2ccccc2)N(C)C1=O (stereo unspecified) | 1.41 | 1.29 | 2.99 | 3.01 | 2.54 | 1.3 | 2.18 | 2.1 | 2.67 | 1.79 |  |  |  |  |  |  |  |  |  | 
NC1CC(=O)c2c(I)sc(I)c21 (stereo unspecified) | 38.7 | 29.8 | 37.9 | 37.4 | 46.1 | 43.5 | 46.9 | 27.2 | 38.1 | 38.7 |  |  |  |  |  |  |  |  |  | 
CC(=O)N(C(=O)CC(=O)N1N=C(C)C(N=Nc2cccc([N+](=O)[O-])c2)C1=O)c1ccc(Cl)cc1 (stereo unspecified) | > 10 | > 10 | > 10 | > 10 | > 10 | > 10 | > 10 | > 10 | > 10 | > 10 |  |  |  |  |  |  |  |  |  | 
CC(C)=CC(=O)c1[nH]c2ccccc2c1CC(=O)NCCc1cnc[nH]1 | > 100 | > 100 | > 100 | > 100 | > 100 | > 100 | > 100 | > 100 | > 100 | > 100 |  |  |  |  |  |  |  |  |  | 
CCC(CCCC[C@H]1CC[C@@H]2CC(=O)C[C@H]12)OC (stereo partly specified) | > 100 | > 100 | > 100 | > 100 | > 100 | > 100 | > 100 | > 100 | > 100 | > 100 |  |  |  |  |  |  |  |  |  | 
C(/C=C(\Nc1ccccc1)c1ccc2ccccc2c1)=Nc1ccccc1 | 1.27 | 15 | 8.39 | 4.6 | 17.3 | 28.1 | 8.24 | 5.4 | 4.1 | 4.08 |  |  |  |  |  |  |  |  |  | 
Cc1c(CCCl)c(Cl)n2c(nc3ccccc32)c1C#N | 2.22 | 2.62 | 14.1 | 3.98 | 0.801 | 2.99 | 5.88 | 0.878 | 17.9 | 2.82 |  |  |  |  |  |  |  |  |  | 
CN(CCNC(=O)c1nn(C)c2c1Cc1ccccc1-2)CCNC(=O)c1nn(C)c2c1Cc1ccccc1-2 | 31.1 | 29.8 | 28.4 | 30.9 | 38.9 | 29.3 | 31.8 | 34.8 | 38.1 | 29.8 |  |  |  |  |  |  |  |  |  | 
C[N+]1(CC[N+]2(C)CCCC2c2cccnc2)CCCC1c1cccnc1 (stereo unspecified) | > 100 | > 100 | > 100 | > 100 | > 100 | > 100 | > 100 | > 100 | > 100 | > 100 |  |  |  |  |  |  |  |  |  | 
CCCCCCCC(=O)NC(C)(C)C(=O)NCC(=O)NC(CC(C)C)C(=O)NC(C)(C)C(=O)NCC(=O)NCC(=O)NC(CC(C)C)C(=O)NC(C)(C)C(=O)NCC(=O)NC(C(=O)NC(CO)CC(C)C)C(C)CC (stereo unspecified) | 8.24 | 8.93 | 7.28 | 6.87 | 9.28 | 6.36 | 6.83 | 6.88 | 7.38 | 6.36 |  |  |  |  |  |  |  |  |  | 
COc1ccc(/C=N/n2c(-c3ccccc3)n[nH]c2=O)c(OC)c1 | > 100 | > 100 | > 73.2 | > 44.6 | > 100 | > 100 | 50.1 | > 100 | > 100 | > 100 |  |  |  |  |  |  |  |  |  | 
O=C(c1ccccc1)c1nn(-c2cccc(Cl)c2)c2nc3nc(-c4ccccc4)cc(=O)n3nc12 | > 25 | > 25 | > 25 | > 25 | > 25 | > 25 | > 25 | > 25 | > 25 | > 25 | > 25 | > 25 | > 25 | > 25 | > 25 | > 25 | > 25 | > 25 | > 25 | > 25
NC1=Nc2ncccc2C(=O)NN1 | > 10 | > 10 | > 10 | > 10 | > 10 | > 10 | > 10 | > 10 | > 10 | > 10 |  |  |  |  |  |  |  |  |  | 
COc1cccc(C2c3cc4c(cc3OC(NNS(=O)(=O)c3ccc(C)cc3)C2C)OCO4)c1O (stereo unspecified) | 92.4 | 64.4 | 40.7 | 68.8 | > 100 | 76.3 | > 100 | > 100 | 49.2 | 57.5 |  |  |  |  |  |  |  |  |  | 
Cc1ccc(NC(c2ccccc2)P(=O)(c2ccccc2)c2ccccc2)cc1 (stereo unspecified) | > 100 | > 100 | 41.3 | > 100 | > 100 | 67.4 | > 100 | > 100 | > 100 | > 100 |  |  |  |  |  |  |  |  |  | 
CNC(=O)OC1/C(C)=C\C(C)C(O)C(OC)CC(C)CC2=C(OC)C(=O)C=C(C2=O)N(C)C(=O)/C(C)=C/C=C\C1OC (stereo unspecified) | > 100 | 27.1 | 28.6 | 18.5 | 12.5 | 16 | > 75.8 | 16.6 | 6.44 | 16 | > 100 |  |  |  |  |  |  |  |  | 
